Measurements taken from patent publication US12049450B2, “Pyridyloxy-carboxylate derivative and preparation method therefor, herbicidal composition, and use” (Qingdao Kingagroot Chemical Compound Co., Ltd., priority 2018, dated 2024).

How the values were obtained:
Assay in all cases: Post-emergence test experiment (greenhouse pot, spray at 2-3 leaf stage)
Assay type in all cases: in vivo
Conditions in all cases: 1000 g/ha; post-emergence spray at 2-3 leaf stage; assessed after 3 weeks; fresh weight inhibition rate
[1] = test system: Abutilon theophrasti
Outline: (§1)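 Activity graded levels 0-5 by fresh-weight inhibition (level 5 above 85%, level 0 below 5%), assessed 3 weeks after treatment. Plants grown in greenhouse pots were sprayed post-emergence at 2-3 leaves using acetone/tween-80 solutions with methyl oleate synergist (1.5 L/ha).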

[2] = test system: Digitaria sanguinalis
Outline: as §1

[3] = test system: Echinochloa crusgalli
Outline: as §1

[4] = test system: Galium spurium
Outline: as §1

[5] = test system: Monochoria vaginalis
Outline: as §1

Row | SMILES | Activity level (growth inhibition rate) Abutilon theophrasti [1] | Activity level (growth inhibition rate) Digitaria sanguinalis [2] | Activity level (growth inhibition rate) Echinochloa crusgalli [3] | Activity level (growth inhibition rate) Galium spurium [4] | Activity level (growth inhibition rate) Monochoria Vaginalis [5]
1 | Cc1c(OC(C)C(=O)OCc2ccccc2)ncc(Cl)c1N (centres unmarked) [Compound 21] | 5 (Level 5: the growth inhibition rate is greater than 85%) | 5 (Level 5: the growth inhibition rate is greater than 85%) | 5 (Level 5: the growth inhibition rate is greater than 85%) | 5 (Level 5: the growth inhibition rate is greater than 85%) | 5 (Level 5: the growth inhibition rate is greater than 85%)
2 | CC(Oc1nc(F)c(Cl)c(N)c1C1CC1)C(=O)OCc1ccccc1 (centres unmarked) [Compound 22] | 5 (Level 5: the growth inhibition rate is greater than 85%) | 5 (Level 5: the growth inhibition rate is greater than 85%) | 5 (Level 5: the growth inhibition rate is greater than 85%) | 5 (Level 5: the growth inhibition rate is greater than 85%) | 5 (Level 5: the growth inhibition rate is greater than 85%)
3 | CC(Oc1ncc(Cl)c(N)c1Cl)C(=O)SCc1ccccc1 (centres unmarked) [Compound 23] | 5 (Level 5: the growth inhibition rate is greater than 85%) | 5 (Level 5: the growth inhibition rate is greater than 85%) | 5 (Level 5: the growth inhibition rate is greater than 85%) | 5 (Level 5: the growth inhibition rate is greater than 85%) | 5 (Level 5: the growth inhibition rate is greater than 85%)
4 | CC(Oc1nc(Cl)c(Cl)c(N)c1Cl)C(=O)SCc1ccccc1 (centres unmarked) [Compound 24] | 5 (Level 5: the growth inhibition rate is greater than 85%) | 5 (Level 5: the growth inhibition rate is greater than 85%) | 5 (Level 5: the growth inhibition rate is greater than 85%) | 5 (Level 5: the growth inhibition rate is greater than 85%) | 5 (Level 5: the growth inhibition rate is greater than 85%)
5 | CC(Oc1nc(F)c(Cl)c(N)c1Cl)C(=O)OCC1CCCO1 (centres unmarked) [Compound 68] | 5 (Level 5: the growth inhibition rate is greater than 85%) | 5 (Level 5: the growth inhibition rate is greater than 85%) | 5 (Level 5: the growth inhibition rate is greater than 85%) | 5 (Level 5: the growth inhibition rate is greater than 85%) | 5 (Level 5: the growth inhibition rate is greater than 85%)
6 | Cc1ccccc1COC(=O)C(C)Oc1nc(F)c(Cl)c(N)c1Cl (centres unmarked) [Compound 69] | 5 (Level 5: the growth inhibition rate is greater than 85%) | 5 (Level 5: the growth inhibition rate is greater than 85%) | 5 (Level 5: the growth inhibition rate is greater than 85%) | 5 (Level 5: the growth inhibition rate is greater than 85%) | 5 (Level 5: the growth inhibition rate is greater than 85%)
7 | CC(Oc1nc(F)c(Cl)c(N)c1Cl)C(=O)SCc1cccc(C(C)C)c1 (centres unmarked) [Compound 71] | 5 (Level 5: the growth inhibition rate is greater than 85%) | 5 (Level 5: the growth inhibition rate is greater than 85%) | 5 (Level 5: the growth inhibition rate is greater than 85%) | 5 (Level 5: the growth inhibition rate is greater than 85%) | 5 (Level 5: the growth inhibition rate is greater than 85%)
8 | CC(Oc1nc(F)c(Cl)c(N)c1Cl)C(=O)OCc1ccc(C(C)C)cc1 (centres unmarked) [Compound 72] | 5 (Level 5: the growth inhibition rate is greater than 85%) | 5 (Level 5: the growth inhibition rate is greater than 85%) | 5 (Level 5: the growth inhibition rate is greater than 85%) | 5 (Level 5: the growth inhibition rate is greater than 85%) | 5 (Level 5: the growth inhibition rate is greater than 85%)
9 | C/C=C/c1ccc(CSC(=O)C(C)Oc2nc(F)c(Cl)c(N)c2Cl)cc1 (centres unmarked) [Compound 73] | 5 (Level 5: the growth inhibition rate is greater than 85%) | 5 (Level 5: the growth inhibition rate is greater than 85%) | 5 (Level 5: the growth inhibition rate is greater than 85%) | 5 (Level 5: the growth inhibition rate is greater than 85%) | 5 (Level 5: the growth inhibition rate is greater than 85%)
10 | CC(Oc1nc(F)c(Cl)c(N)c1Cl)C(=O)OCc1ccc(C2CC2)cc1 (centres unmarked) [Compound 74] | 5 (Level 5: the growth inhibition rate is greater than 85%) | 5 (Level 5: the growth inhibition rate is greater than 85%) | 5 (Level 5: the growth inhibition rate is greater than 85%) | 5 (Level 5: the growth inhibition rate is greater than 85%) | 5 (Level 5: the growth inhibition rate is greater than 85%)
11 | CC(Oc1nc(F)c(Cl)c(N)c1Cl)C(=O)OC(C)c1ccc(Br)cc1 (centres unmarked) [Compound 77] | 5 (Level 5: the growth inhibition rate is greater than 85%) | 5 (Level 5: the growth inhibition rate is greater than 85%) | 5 (Level 5: the growth inhibition rate is greater than 85%) | 5 (Level 5: the growth inhibition rate is greater than 85%) | 5 (Level 5: the growth inhibition rate is greater than 85%)
12 | CC(Oc1nc(F)c(Cl)c(N)c1Cl)C(=O)OCc1cccc(I)c1 (centres unmarked) [Compound 78] | 5 (Level 5: the growth inhibition rate is greater than 85%) | 5 (Level 5: the growth inhibition rate is greater than 85%) | 5 (Level 5: the growth inhibition rate is greater than 85%) | 5 (Level 5: the growth inhibition rate is greater than 85%) | 5 (Level 5: the growth inhibition rate is greater than 85%)
13 | CC(Oc1nc(F)c(Cl)c(N)c1Cl)C(=O)OCc1cc(F)ccc1F (centres unmarked) [Compound 79] | 5 (Level 5: the growth inhibition rate is greater than 85%) | 5 (Level 5: the growth inhibition rate is greater than 85%) | 5 (Level 5: the growth inhibition rate is greater than 85%) | 5 (Level 5: the growth inhibition rate is greater than 85%) | 5 (Level 5: the growth inhibition rate is greater than 85%)
